{"source": "patent US9370516B2", "about": "(Pfizer Inc., priority 2012, dated 2016)", "key": {"[1]": {"target": "T1, patient GHSR1a (Homo sapiens, UniProt Q92847)", "T1 sequence (Q92847 whole entry)": "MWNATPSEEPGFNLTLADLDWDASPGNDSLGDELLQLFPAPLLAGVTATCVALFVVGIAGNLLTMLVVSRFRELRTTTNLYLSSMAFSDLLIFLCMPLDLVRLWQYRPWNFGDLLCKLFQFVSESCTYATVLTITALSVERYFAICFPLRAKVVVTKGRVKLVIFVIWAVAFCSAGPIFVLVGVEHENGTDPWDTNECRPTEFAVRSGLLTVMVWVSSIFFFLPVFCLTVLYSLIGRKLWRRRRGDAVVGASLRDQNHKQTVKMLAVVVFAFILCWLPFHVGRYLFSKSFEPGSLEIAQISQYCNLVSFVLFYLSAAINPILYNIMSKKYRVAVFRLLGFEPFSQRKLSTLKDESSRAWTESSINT", "conditions": "pre-incubation 8 hours", "source_text": "(§1) The SPA format was utilized for high throughput screening of test compounds and filter binding served for more comprehensive binding characterization. In both formats test compound affinity is expressed as Ki value, defined as the concentration of compound required to decrease [^125I] ghrelin binding by 50% for a specific membrane batch at a given concentration of radioligand."}, "[2]": {"tested_on": "Male Wistar Han rats", "assay": "Locomotor activity after single oral dose", "assay_type": "in vivo, rat", "protocol": "(§2) Male Wistar Han rats were administered a single dose (1, 10, 50, or 150 mg/kg) of (R)-2-(2-methylimidazo[2,1-b]thiazol-6-yl)-1-(2-(5-(6-methylpyrimidin-4-yl)-2,3-dihydro-1H-inden-1-yl)-2,7-diazaspiro[3.5]nonan-7-yl)ethanone (Example 1) via oral gavage to assess the effects of Example 1 on locomotor activity over a 21 hour period (FIG. 1). Animals were habituated to the locomotor apparatus one hour prior to dosing. The lights were turned off at 4 pm and turned on at 4 am. Animals were dosed at 4 pm. Activity was monitored post-dose for 20 hours. Plasma, brains and CSF were taken from a satellite group of animals at Tmax (30 minutes post dosing)."}, "[3]": {"assay": "Plasma and brain levels 30 minutes post dosing", "assay_type": "in vivo, rat", "protocol": "as §2"}, "[4]": {"tested_on": "humans", "assay": "Clinical studies B3301001, B3301002, B3301007", "assay_type": "in vivo, human", "protocol": "Patients were administered Example 1 as an extemporaneously prepared suspension in B3301001, B3301002, and the IR in B3301007 and as an extemporaneously prepared osmotic capsule (EPOC) in B3301007. […] Dose related increase in heart rate (up to ˜10 beats per minute) as well as attenuation of both ghrelin-induced growth hormone secretion and postprandial glucose were seen after acute dosing."}, "[5]": {"target": "T2, monkey GHSR1a (Macaca mulatta, UniProt F6Z4B1)", "T2 construct": "monkey (XM_001084886.1)", "T2 sequence (F6Z4B1 1-366)": "as the sequence (Q92847 whole entry) above, with P6A, D20E, Q36R, A59S, V163I counted along it", "assay": "Radioligand binding filtration format assay, monkey GHSR1a", "conditions": "pre-incubation 90 minutes; read-out: Primate GHS-1aR Filter Ki (converted)", "protocol": "(§3) Ghrelin binding assays were performed in a final volume of 100 μl containing […] patient GHSR1a (HEK293 Tetracycline-Inducible cell line expressing the patient growth secretagogue receptor 1a; prepared as membranes) and 50 pM [^125I] ghrelin (Perkin Elmer Life Sciences, NEX-388), plus varying concentrations of test compound or vehicle.\n(§4) Assays were initiated by addition of 23 μl assay buffer (50 mM HEPES, 10 mM MgCl2, 0.2% BSA, EDTA-free protease inhibitor tablets—1 tablet/50 ml buffer, pH 7.4), 25 μl 4 mg/ml hGHSR1a membrane and 50 μl of 100 pM [^125I] ghrelin, both in assay buffer.\n(§5) Radioligand binding filtration format assays for dog (NM_001099945.1), monkey (XM_001084886.1), mouse (NM_177330), and rat (NM_032075) GHSR1a (all expressed in unique HEK293 Tetracycline-Inducible cell lines) were performed in an identical manner as described for patient GHSR1a except that the final amount of membrane to be used is as follows: 2 μg dog GHSR, 250 ng monkey GHSR, 200 ng mouse GHSR, or 125 ng rat GHSR."}, "[6]": {"target": "T1, patient GHSR1a", "source_text": "The assay monitors the ligand-dependent exchange of GDP for GTP. GPCR activation results in an increase in fluorescence as receptor-bound GDP is replaced by Europium-labeled GTP."}, "[7]": {"target": "T1, patient GHSR1a", "assay": "biochemical", "conditions": "for Ki: Human GHS-1aR Filter Ki", "protocol": "as §1\nPatient Ghrelin Filter Binding Assay\nas §3\n(§6) Briefly, assays were prepared at room temperature in 96-well plates (Costar, 3357) containing 2 μl of test compound in DMSO (or DMSO as vehicle). Assays were initiated by addition of 23 μl assay buffer (50 mM HEPES, 10 mM MgCl2, 0.2% BSA, EDTA-free protease inhibitor tablets—1 tablet/50 ml buffer, pH 7.4), 25 μl 4 mg/ml hGHSR1a membrane and 50 μl of 100 pM [^125I] ghrelin, both in assay buffer.\nThe mixture was incubated for 90 minutes at room temperature followed by transfer to a 0.3% PEI-treated, 96-well glass fiber filtration plate (Perkin Elmer, 6005174). The mixture was suctioned dry with vacuum and immediately washed 3 times with 200 μl ice cold 50 mM Tris pH 7.5. Plates were allowed to dry overnight at room temperature and 30 μl Supermix scintillant (Perkin Elmer, 1200-439) is added to each well. The amount of receptor-ligand complex was determined by liquid scintillation counting using a 1450 Microbeta Trilux (Wallac)."}, "[8]": {"target": "broad panel of receptors, transporters, ion channels, and enzymes", "assay": "Selectivity against a broad panel"}, "[9]": {"target": "T3, dog GHSR1a (Canis lupus familiaris, UniProt A5HKU8)", "T3 construct": "dog (NM_001099945.1)", "T3 sequence (A5HKU8 1-349)": "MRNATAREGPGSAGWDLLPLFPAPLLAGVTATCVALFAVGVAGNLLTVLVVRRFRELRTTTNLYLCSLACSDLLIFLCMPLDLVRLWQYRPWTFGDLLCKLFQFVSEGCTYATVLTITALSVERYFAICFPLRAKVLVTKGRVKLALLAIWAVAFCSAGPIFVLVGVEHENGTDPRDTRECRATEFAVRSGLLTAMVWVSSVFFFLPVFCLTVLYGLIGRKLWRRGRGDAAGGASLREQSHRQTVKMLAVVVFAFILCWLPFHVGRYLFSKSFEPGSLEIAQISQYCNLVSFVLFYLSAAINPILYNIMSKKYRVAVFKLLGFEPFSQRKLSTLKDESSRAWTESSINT", "assay": "Radioligand binding filtration format assay, dog GHSR1a", "conditions": "pre-incubation 90 minutes; read-out: Dog GHS-1aR Filter Ki (converted)", "protocol": "as §3, §4, §5"}, "[10]": {"target": "mouse GHSR1a (Mus musculus, UniProt Q99P50)", "sequence (Q99P50 whole entry)": "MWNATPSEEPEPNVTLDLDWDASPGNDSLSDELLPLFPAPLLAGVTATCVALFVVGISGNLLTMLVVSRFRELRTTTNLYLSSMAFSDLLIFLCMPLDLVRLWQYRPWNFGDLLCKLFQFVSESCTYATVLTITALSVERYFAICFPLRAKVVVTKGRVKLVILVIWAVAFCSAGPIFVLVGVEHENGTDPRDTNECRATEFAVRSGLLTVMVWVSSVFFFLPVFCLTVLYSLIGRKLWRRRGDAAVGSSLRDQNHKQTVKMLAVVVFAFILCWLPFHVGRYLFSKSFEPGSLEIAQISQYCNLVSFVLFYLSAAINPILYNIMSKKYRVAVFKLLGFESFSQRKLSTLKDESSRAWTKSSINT", "assay": "biochemical", "conditions": "Mouse GHS-1aR Filter Ki, pre-incubation 90 minutes", "protocol": "as §3, §6\n(§7) The mixture was incubated for 90 minutes at room temperature followed by transfer to a 0.3% PEI-treated, 96-well glass fiber filtration plate (Perkin Elmer, 6005174). The mixture was suctioned dry with vacuum and immediately washed 3 times with 200 μl ice cold 50 mM Tris pH 7.5. Plates were allowed to dry overnight at room temperature and 30 μl Supermix scintillant (Perkin Elmer, 1200-439) is added to each well. The amount of receptor-ligand complex was determined by liquid scintillation counting using a 1450 Microbeta Trilux (Wallac). […]"}, "[11]": {"target": "rat GHSR1a (Rattus norvegicus, UniProt O08725)", "sequence (O08725 whole entry)": "as the sequence (Q99P50 whole entry) above, with S30P, S249A counted along it", "assay": "biochemical", "conditions": "Rat GHS-1aR Filter Ki, pre-incubation 90 minutes", "protocol": "as §3, §6, §7"}, "[12]": {"tested_on": "male rhesus monkeys", "assay": "Primate study of sleep duration and food intake after evening dosing", "assay_type": "in vivo, Macaca mulatta", "source_text": "In a primate study, the effect of Example 1 on sleep duration and food intake three hours post evening dosing Example 1 was studied dosing either once a day (QD) or twice a day (BID). Eight healthy adult (5.8 to 9.7 years of age) male rhesus monkeys, (Macaca mulatta, of Indian origin) were used. Animals were studied in parallel. According to a cross-over design, four of the animals received Example 1 (or Vehicle as a control) QD during the first phase of the study and BID during the second phase of the study. A reverse treatment schedule was used for the remaining four animals. When Example 1 was administered QD, the single dose was administered in the evening. Each treatment period lasted 28-30 consecutive days. Vehicle treatment lasted 10-14 days, immediately preceding the phase where Example 1 was administered. Animals were also kept in their sleep/circadian chambers to become familiar with them. Treatment was administered as a liquid solution, dispensed automatically using a timer-controlled pump. Throughout treatment periods, animals were maintained in light-controlled and sound attenuated sleep/circadian chambers, under constant conditions of dim light, in order to determine the intrinsic rhythms of sleep/activity and self-administered food intake. Sleep/activity cycle and sleep duration was documented using continuous on-line actigraphic image analysis technique, as described in Masuda et al., J Biol Rhythms. 2010 October; 25(5):361-71, Intrinsic activity rhythms in Macaca mulatta: their entrainment to light and melatonin. A software algorithm for actigraphic data analysis of sleep versus wakefulness in rhesus monkeys is explained in Zhdanova et al., J Biol Rhythms. 2011 April; 26(2):149-59. Aging of intrinsic circadian rhythms and sleep in a diurnal nonhuman primate, Macaca mulatta. Sleep onset and duration estimates were based on the comparisons between polysomnographic and actigraphic sleep in this species. Each circadian chamber was equipped with an individual touch-screen monitor, connected to an automatic pellet dispenser (ENV-203-1000, Med Associates Inc., St. Albans, Vt.). This allowed for ad libitum around the clock self-administration of 1 g food pellets (Nutritionally complete dustless precision pellets, Bio-Serv, Frenchtown, N.J.) via pressing a moving on-screen target. The time each pellet dispensed was documented. Data analysis was conducted using linear mixed model (SPSS), with the level of significance at p<0.05. Data were presented as group means (standard error of the means (SEM)) for each treatment condition: QD or BID administration of vehicle or Example 1."}, "[13]": {"conditions": "10 mg/kg oral gavage, 35-65 minutes post dosing"}, "[14]": {"conditions": "50 mg/kg oral gavage, 35-65 minutes post dosing"}, "[15]": {"conditions": "QD and BID groups, N=8 per group, p<0.01"}, "[16]": {"conditions": "individual animal, evening QD, throughout the treatment period"}}, "note": "Values joined by “and” are separate entries in the source; they are usually repeats but may differ in a detail not shown here. Identical values can stand only once.", "data": [{"smiles": "Cc1cc(-c2ccc3c(c2)CC[C@H]3N2CC3(CCN(C(=O)Cc4cn5cc(C)sc5n4)CC3)C2)ncn1", "note": "[Example 1, (R)-2-(2-methylimidazo[2,1-b]thiazol-6-yl)-1-(2-(5-(6-methylpyrimidin-4-yl)-2,3-dihydro-1H-inden-1-yl)-2,7-diazaspiro[3.5]nonan-7-yl)ethanone]", "values": [{"measurement": "Human GHS-1aR SPA Ki", "setting": "[1]", "value": 2.24, "unit": "ng/mL"}, {"measurement": "effect on locomotor activity compared to vehicle", "setting": "[2]; 1 mg/kg oral gavage, 35-65 minutes post dosing", "value": "no biologically or statistically significant effect"}, {"measurement": "decrease in rearing", "setting": "[2]; [13]", "value": 56, "unit": "%"}, {"measurement": "decrease in total locomotor activity", "setting": "[2]; [13]", "value": 60, "unit": "%"}, {"measurement": "decrease in rearing", "setting": "[2]; [14]", "value": 43, "unit": "%"}, {"measurement": "decrease in total locomotor activity", "setting": "[2]; [14]", "value": 48, "unit": "%"}, {"measurement": "total activity compared to vehicle control", "setting": "[2]; 150 mg/kg oral gavage, 35-65 minutes post dosing", "value": "reduction in total activity which was statistically significant"}, {"measurement": "total activity", "setting": "[2]; 20 hours post dosing", "value": "no statistically or biologically significant reductions in total activity"}, {"measurement": "hyperactivity", "setting": "[2]; any dose (1-150 mg/kg)", "value": "did not induce hyperactivity"}, {"measurement": "Brain (nM free)", "setting": "[3]; 1 mg/kg oral", "value": 1.6, "unit": "nM free"}, {"measurement": "Plasma (nM free)", "setting": "[3]; 1 mg/kg oral", "value": 18, "unit": "nM free"}, {"measurement": "Brain (nM free)", "setting": "[3]; 10 mg/kg oral", "value": 16, "unit": "nM free"}, {"measurement": "Plasma (nM free)", "setting": "[3]; 10 mg/kg oral", "value": 184, "unit": "nM free"}, {"measurement": "Brain (nM free)", "setting": "[3]; 50 mg/kg oral", "value": 80, "unit": "nM free"}, {"measurement": "Plasma (nM free)", "setting": "[3]; 50 mg/kg oral", "value": 856, "unit": "nM free"}, {"measurement": "Brain (nM free)", "setting": "[3]; 150 mg/kg oral", "value": 148, "unit": "nM free"}, {"measurement": "Plasma (nM free)", "setting": "[3]; 150 mg/kg oral", "value": 1704, "unit": "nM free"}, {"measurement": "dose related increase in heart rate", "setting": "[4]; after acute dosing", "value": "≤ 10", "unit": "beats per minute"}, {"measurement": "ghrelin-induced growth hormone secretion", "setting": "[4]; after acute dosing", "value": "attenuation"}, {"measurement": "postprandial glucose", "setting": "[4]; after acute dosing", "value": "attenuation"}, {"measurement": "safety and tolerability in humans", "setting": "[4]; up to 100 mg BID for 14 days", "value": "safe and generally well tolerated"}, {"measurement": "Ki", "setting": "[5]", "value": 1.83, "unit": "nM"}, {"measurement": "functionality of the test compound", "setting": "[6]", "value": "inverse agonist"}, {"measurement": "Ki", "setting": "[7]; pre-incubation 90 minutes", "value": "2.49 nM and 2.5 nM"}, {"measurement": "Ki", "setting": "[7]; pre-incubation 24 hours", "value": 1.42, "unit": "nM"}, {"measurement": "Kd", "setting": "[7]; Human GHS-1aR Filter Motulsky Kd, Equilibrium 4.07 hours", "value": 3.04, "unit": "nM"}, {"measurement": "Kd", "setting": "[7]; human Kd via Patient Ghrelin Filter Binding Assay", "value": 3, "unit": "nM"}, {"measurement": "IC50", "setting": "[8]", "value": "> 1000", "unit": "nM"}, {"measurement": "Ki", "setting": "[9]", "value": "3.56 nM and 3.57 nM"}, {"measurement": "Ki", "setting": "[10]", "value": 7.7, "unit": "nM"}, {"measurement": "Ki", "setting": "[11]", "value": "3.19 nM and 3.2 nM"}, {"measurement": "change in food intake within 3 hours of evening administration vs vehicle", "setting": "[12]; [15]", "value": "significant decrease in food intake"}, {"measurement": "change in sleep duration within 3 hours of evening treatment vs vehicle", "setting": "[12]; [15]", "value": "significant increase in sleep duration"}, {"measurement": "food intake soon after administration", "setting": "[12]; [16]", "value": "significantly reduced food intake"}, {"measurement": "sleep latency", "setting": "[12]; [16]", "value": "significantly reduced sleep latency"}]}]}
